pIC50: −log10 of the molar value. Structures can show the parent of a compound that is named as a salt. Where two headings read alike, the source gives them in different places.
Experiments:
[1] = system: Adriamycin-Resistant Human Ovary Cancer Cells (A2780/ADM); settings: 72 h
Method: (§1) A2780/ADM cells were diluted with an RPMI 1640 medium (430-1800 EB, produced by GIBCO) containing 10% fetal bovine serum (200-6140AG, produced by GIBCO) and 1% glutamine (320-5030 PG, produced by GIBCO) to a concentration of 30000 cells/ml. One milliliter of the cell suspension was inoculated to each well of a 24-well microtiter plate and cultured under conditions of 37°C, 5% CO₂, and a humidity of 95% or higher for 1 day. A mixture of 0.1 ml of a Vindesine solution diluted serially with the above medium and 0.1 ml of the above medium was added to each well as a control group. […] The cells in each well were further cultured under the same conditions as above for additional 3 days, and the number of the cells was counted with a Coulter counter to obtain a 50% growth inhibitory concentration (IC₅₀) of the control groups and the test groups.

[2] = system: Adriamycin-Resistant Human Ovary Cancer Cells (A2780/ADM); experiment: Test on Vindesine Resistance Using Adriamycin-Resistant Human Ovary Cancer Cells (A2780/ADM)
Method: as §1

[3] = system: Vincristine-Resistant Mouse Leukemia Cells (P388/VCR); experiment: Test on Vincristine Resistance Using Vincristine-Resistant Mouse Leukemia Cells (P388/VCR); type: in vivo; settings: for T/C: P388/VCR-implanted CDF₁ mice
Method: Vincristine-resistant P388 cells (P388/VCR) were suspended in physiological saline, and 5x10⁶ cells/0.2 ml were intraperitoneally implanted to grouped 6-week-old CDF₁ strain male mice, each group consisting of 5 mice. A prescribed amount of Vincristine alone or a mixture of Vincristine and a test compound (I) was intraperitoneally administered for consecutive 5 days from the next day of the implantation. The effect of overcoming the drug resistance was evaluated in terms of T/C, a percentage of the number of survival days of a test group to the number of survival days of a control group.
Vincristine (VCR) used was Vincristine Sulfate, produced by Shionogi & Co., Ltd., dissolved in physiological saline. Compound (I) was suspended in a 0.3% aqueous solution of carboxymethyl cellulose and administered in an amount of 0.1 ml per 10 g-b.w. […]

[4] = A2780, 72 h, read-out: IC₅₀ of Test Compound Alone, A2780/ADM cells, test compound alone, 3 days culture, cell count

Compound	pIC50 [2, 4]	other results
COC1C(N(C)CCO)CC2OC1(C)n1c3ccccc3c3c4c(c5c6ccccc6n2c5c31)C(=O)NC4O (single isomer, unassigned) [Compound I-8]		pIC50 [1]: 4.76
COC1C(N(C)C(=O)OCc2ccccc2)CC2OC1(C)n1c3ccccc3c3c4c(c5c6ccccc6n2c5c31)C(=O)N(C)C4 (stereo not drawn) [Compound I-2]	< 4.00	T/C ([3]; Compound (I-2) alone 22.2 mg/kg i.p. for 5 consecutive days, survival days vs control): 102%; effect of overcoming the drug resistance ([3]; P388/VCR-implanted mice, combined with Vincristine, statement in words): excellent effects to overcome the drug resistance; T/C ([3]; VCR 0.1 mg/kg + Compound (I-2) 22.2 mg/kg i.p. for 5 consecutive days): 152%
COC1C(N(C)C(=O)N2CCN(C)CC2)CC2OC1(C)n1c3ccccc3c3c4c(c5c6ccccc6n2c5c31)C(=O)NC4O (stereo not drawn) [Compound I-3]	5.00	
COC1C(N(C)C(=O)CN2CCN(C)CC2)CC2OC1(C)n1c3ccccc3c3c4c(c5c6ccccc6n2c5c31)C(=O)NC4O (stereo not drawn) [Compound I-6]	4.90	
CCOC(=O)N(C)C1CC2OC(C)(C1OC)n1c3ccccc3c3c4c(c5c6ccccc6n2c5c31)C(=O)N(C)C4 (stereo not drawn) [Compound I-10]		pIC50 ([2]; A2780, 72 h, read-out: IC₅₀ of Test Compound Alone): < 5.00
COC(=O)C1(OC(C)=O)CC2OC1(C)n1c3ccccc3c3c4c(c5c6ccccc6n2c5c31)C(=O)N(C(C)=O)C4 (stereo not drawn) [Compound I-17]	< 4.00	
CC[C@]1(O)C[C@H]2CN(CCc3c([nH]c4ccccc34)[C@@](C(=O)OC)(c3cc4c(cc3OC)N(C=O)[C@H]3[C@@](O)(C(=O)OC)[C@H](OC(C)=O)[C@]5(CC)C=CCN6CC[C@]43[C@@H]65)C2)C1 [VCR, Vincristine Sulfate, reference compound]		T/C ([3]; VCR alone 0.1 mg/kg i.p. for 5 consecutive days): 112%; T/C ([3]; VCR alone 0.2 mg/kg i.p. for 5 consecutive days): 116%; T/C ([3]; VCR alone 0.4 mg/kg i.p. for 5 consecutive days): 121%
CC[C@]1(O)C[C@@H]2CN(CCc3c([nH]c4ccccc34)[C@@](C(=O)OC)(c3cc4c(cc3OC)N(C)[C@H]3[C@@](O)(C(N)=O)[C@H](O)[C@]5(CC)C=CCN6CC[C@]43[C@@H]65)C2)C1 [Vindesine, reference compound]		pIC50 ([2]; A2780, read-out: IC₅₀ of Vindesine, A2780/ADM cells, control group: Vindesine alone, no test compound): 5.89

Second part, led by results:

pIC50 [2, 4]	Compound	other results
5.04	COC1C(N(C)CCO)CC2OC1(C)n1c3ccccc3c3c4c(c5c6ccccc6n2c5c31)C(=O)NC4O (single isomer, unassigned) [Compound I-9]	
6.59	CNC1CC2OC(C)(C1OC)n1c3ccccc3c3c4c(c5c6ccccc6n2c5c31)C(=O)N(C)C4 (stereo not drawn) [Compound I-1]	
5.15	COC1C(N(C)C(=O)CN2CCOCC2)CC2OC1(C)n1c3ccccc3c3c4c(c5c6ccccc6n2c5c31)C(=O)NC4O (stereo not drawn) [Compound I-4]	
5.04	COC1C(N(C)C(=O)CN(C)C)CC2OC1(C)n1c3ccccc3c3c4c(c5c6ccccc6n2c5c31)C(=O)NC4O (stereo not drawn) [Compound I-5]	
5.02	COC1C(N(C)CCOC(=O)N2CCN(C)CC2)CC2OC1(C)n1c3ccccc3c3c4c(c5c6ccccc6n2c5c31)C(=O)NC4O (stereo not drawn) [Compound I-7]	
6.80	CCOC(=O)C1(O)CC2OC1(C)n1c3ccccc3c3c4c(c5c6ccccc6n2c5c31)C(=O)NC4 (stereo not drawn) [Compound I-11]	pIC50 ([2]; A2780, read-out: IC₅₀ of Vindesine, A2780/ADM cells, Vindesine with test compound at 0.05 µM): 6.11
6.38	CCCOC(=O)C1(O)CC2OC1(C)n1c3ccccc3c3c4c(c5c6ccccc6n2c5c31)C(=O)NC4 (stereo not drawn) [Compound I-12]	
5.96	CCCCOC(=O)C1(O)CC2OC1(C)n1c3ccccc3c3c4c(c5c6ccccc6n2c5c31)C(=O)NC4 (stereo not drawn) [Compound I-13]	
5.32	CCCCCCOC(=O)C1(O)CC2OC1(C)n1c3ccccc3c3c4c(c5c6ccccc6n2c5c31)C(=O)NC4 (stereo not drawn) [Compound I-14]	
5.55	CCCCCCOC(=O)C1(O)CC2OC1(C)n1c3ccccc3c3c4c(c5c6ccccc6n2c5c31)C(=O)NC4=O (stereo not drawn) [Compound I-15]	
